Among the data in ChEMBL document CHEMBL1132897, “The basal SAR of a novel insulin receptor activator” (Bioorg Med Chem Lett, 2000) are Relative activity and Activation values, retold here.

Assay [1] deals with Insulin receptor (Homo sapiens) (UniProt P06213). Nature of the assay: Ability to activate the insulin receptor compared to that of lead structure 1 expressed as X/1.
For assay [2] the target is unchanged. Description: Percent activation of insulin receptor in CHO cells by 10 uM of compound. Format: cell-based.

Insulin receptor (Homo sapiens), sequence (P06213 28-758 limits assumed): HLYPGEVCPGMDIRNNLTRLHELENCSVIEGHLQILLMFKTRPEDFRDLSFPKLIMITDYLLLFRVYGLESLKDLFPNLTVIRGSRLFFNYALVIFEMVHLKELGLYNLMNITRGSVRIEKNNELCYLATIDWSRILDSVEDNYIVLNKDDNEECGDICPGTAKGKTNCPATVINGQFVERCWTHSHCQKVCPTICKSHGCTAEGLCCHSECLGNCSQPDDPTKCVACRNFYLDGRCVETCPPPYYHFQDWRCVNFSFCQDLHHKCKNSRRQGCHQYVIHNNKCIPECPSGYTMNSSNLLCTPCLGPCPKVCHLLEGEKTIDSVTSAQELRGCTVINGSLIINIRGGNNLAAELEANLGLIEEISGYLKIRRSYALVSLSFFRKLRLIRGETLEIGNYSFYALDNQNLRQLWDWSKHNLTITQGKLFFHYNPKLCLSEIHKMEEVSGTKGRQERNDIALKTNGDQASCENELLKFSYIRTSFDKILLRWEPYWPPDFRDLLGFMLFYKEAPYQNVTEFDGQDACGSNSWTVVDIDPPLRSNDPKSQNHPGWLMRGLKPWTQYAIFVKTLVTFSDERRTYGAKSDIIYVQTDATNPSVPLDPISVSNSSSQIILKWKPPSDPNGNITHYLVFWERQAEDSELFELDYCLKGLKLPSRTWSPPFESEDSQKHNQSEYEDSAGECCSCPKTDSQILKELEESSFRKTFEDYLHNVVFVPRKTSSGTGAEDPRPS
Insulin receptor (Homo sapiens), sequence (P06213 763-1382 limits assumed): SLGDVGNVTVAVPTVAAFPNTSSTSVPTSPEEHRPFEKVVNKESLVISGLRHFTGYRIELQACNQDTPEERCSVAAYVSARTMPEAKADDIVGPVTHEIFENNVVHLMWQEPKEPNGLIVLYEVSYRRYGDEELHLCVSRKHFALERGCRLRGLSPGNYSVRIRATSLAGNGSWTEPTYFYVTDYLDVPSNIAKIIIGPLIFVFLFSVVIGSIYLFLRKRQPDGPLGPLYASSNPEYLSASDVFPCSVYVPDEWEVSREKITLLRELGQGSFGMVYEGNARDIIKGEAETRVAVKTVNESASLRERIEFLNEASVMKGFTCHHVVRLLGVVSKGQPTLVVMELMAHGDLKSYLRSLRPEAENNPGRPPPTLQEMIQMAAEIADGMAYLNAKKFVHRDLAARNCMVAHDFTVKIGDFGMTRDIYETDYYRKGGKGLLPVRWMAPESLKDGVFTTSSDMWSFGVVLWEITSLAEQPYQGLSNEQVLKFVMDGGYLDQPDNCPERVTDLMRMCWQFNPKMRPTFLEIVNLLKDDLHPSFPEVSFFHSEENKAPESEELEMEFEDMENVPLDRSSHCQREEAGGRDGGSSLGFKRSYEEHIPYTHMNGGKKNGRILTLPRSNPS

With `C=CC(C)(C)c1[nH]c2ccccc2c1C1=C(OS(=O)(=O)C(F)(F)F)C(=O)C(c2c[nH]c3c(CC=C(C)C)cccc23)=C(N)C1=O`, in assay [1], the Relative activity was 0. Also, the Activation in assay [2] amounted to 0%.

On to `CCC(C)(C)c1[nH]c2ccccc2c1C1=C(O)C(O)=C(c2c[nH]c3c(CC=C(C)C)cccc23)C(=O)C1=O`, for which the Relative activity in assay [1] is 1.09. The compound further registered an Activation in assay [2] of 82%.

In assay [1], `C=CC(C)(C)c1[nH]c2ccccc2c1C1=C(O)C(O)=C(c2c[nH]c3c(CC(O)C(C)(C)O)cccc23)C(=O)C1=O` (stereo not given) yielded a Relative activity of 1. In assay [2], this compound had an Activation of 75%.

Turning to `C=CC(C)(C)c1[nH]c2ccccc2c1C1=C(O)C(O)=C(c2cn(C)c3c(CC=C(C)C)cccc23)C(=O)C1=O`, the Relative activity in assay [1] worked out at 0.32. Moreover, the Activation in assay [2] stood at 24%.

In the case of `C=CC(C)(C)c1[nH]c2ccccc2c1C1=C(O)C(N)=C(c2c[nH]c3c(CC=C(C)C)cccc23)C(=O)C1=O`, in assay [1], the Relative activity was found to be 0.03. The compound further had an Activation in assay [2] of 2%.

`C=CC(C)(C)c1[nH]c2ccccc2c1C1=C(O)C(O)=C(c2c[nH]c3c(CCC(C)(C)O)cccc23)C(=O)C1=O`: the Relative activity in assay [1] was 0.47. In addition, in assay [2], the Activation is 35%.

Compound `C=CC(C)(C)c1[nH]c2ccccc2c1C1=C(O)C(=N\C)/C(c2c[nH]c3c(CC=C(C)C)cccc23)=C(O)C/1=N/C` showed a Relative activity in assay [1] of 0.01. Also, the Activation in assay [2] amounted to 1%.

Take `C=CC(C)(C)c1[nH]c2ccccc2c1C1=C(OS(=O)(=O)C(F)(F)F)C(=O)C(c2c[nH]c3c(CC=C(C)C)cccc23)=C(OS(=O)(=O)C(F)(F)F)C1=O`: the Relative activity in assay [1] worked out at 0. In assay [2], this compound returned an Activation of 0%.

`C=CC(C)(C)c1[nH]c2ccccc2c1C1=C(O)C(O)=C(c2c[nH]c3c(CCC(C)(C)OC(=O)C(F)(F)F)cccc23)C(=O)C1=O`: in assay [1], the Relative activity stood at 0.64. For the same compound, the Activation in assay [2] was determined as 48%.

Compound `C=CC(C)(C)c1[nH]c2ccccc2c1C1=C(OC)C(=O)C(c2c[nH]c3c(CC=C(C)C)cccc23)=C(OC)C1=O` registered a Relative activity in assay [1] of 0. In assay [2], this compound yielded an Activation of 0%.

In turn, `C=CC(C)(C)c1[nH]c2ccccc2c1C1=C(OC)C(=O)C(c2c[nH]c3c(CC=C(C)C)cccc23)=C(O)C1=O` showed a Relative activity in assay [1] of 0.21. In addition, in assay [2], the Activation was 16%.

Compound `CCC(C)(C)c1[nH]c2ccccc2c1C1=C(O)C(O)=C(c2c[nH]c3c(CCC(C)C)cccc23)C(=O)C1=O` had a Relative activity in assay [1] of 0.76. In addition, the Activation in assay [2] amounted to 57%.

For `C=CC(C)(C)c1c(C2=C(O)C(O)=C(c3c[nH]c4c(CCC(C)(C)O)cccc34)C(=O)C2=O)c2ccccc2n1C`, the Relative activity in assay [1] came out at 1.05. In assay [2], this compound displayed an Activation of 79%.

`C=CC(C)(C)c1c(C2=C(O)C(O)=C(c3cn(C)c4c(CC=C(C)C)cccc34)C(=O)C2=O)c2ccccc2n1C` displayed a Relative activity in assay [1] of 0.03. The compound further showed an Activation in assay [2] of 3%.

In assay [1], `C=CC(C)(C)c1[nH]c2ccccc2c1C1=C(O)C(O)=C(c2c[nH]c3c(CC=C(C)C)cccc23)C(=O)C1=O` returned a Relative activity of 1. In assay [2], this compound displayed an Activation of 75%.
